Entries after “also recorded” stand apart in the source; their conditions may differ. Read-outs that look alike come from different tables or passages of the source.
Assays:
[1] = tested on: MG63.3 OS cell line; assay: in vitro 3D BME assay with MG63.3 OS cell line; type: cell-based, human; settings: for activity on 3D BME compared with 2D: MG63.3, 3D BME vs 2D MTT 72 h
From the text: (§1) 3D basement membrane extract (BME) assay was developed at the NCI Barkan (D. Barkan et al. 2008; Dalit Barkan and Green 2011; Hen and Barkan 2020). BME is purified from Engelbreth-Holm-Swarm (EHS) tumor, primarily made up of laminin, collagen IV, entactin, and heparin sulfate proteoglycans (Cultrex Reduced Growth Factor Basement Membrane Extract, PathClear n.d.), which allows it to more accurately reflect the 3D extracellular environment in the body.
(§2) Initially >150 selected therapeutic agents were tested on BME based on the likelihood for either a positive effect or a […] negative effect (as negative controls). […] These therapeutic agents were also tested in dose response (as broad as 1 pM-100 μM) for 2D cytotoxicity (MTT) and the IC50 was calculated. Where required, the hits from the initial screen were also further characterized at additional doses <100 nM in order to further determine the relative selectivity compared to the 2D IC50.
(§3) The influence of drug exposure on the metastatic phenotype was assessed in an in vitro assay of ME and escape from dormancy using a 3D BME assay as previously reported, which was adapted for use with OS cells.
(§4) Cultrex® PathClear, Reduced Growth Factor Basement Membrane Extract (BME—Bio-Techne, Minneapolis, MN) was added ([…]) to a 96-well plate and allowed to gel by incubating at 37° C. for ≥30 min. Cells were harvested, washed with DMEM (no glucose, no FBS, Gibco, Grand Island, NY) and centrifuged at 1500 g×5 mins. The media was aspirated and the remaining cell pellet flicked for about 10 s to ensure disaggregation.
(§5) Cells were diluted in assay media containing 2% BME, resuspended vigorously and 150 μL of the cell suspension was added on top of the gelled 3D BME layer. […] Cell numbers were determined in control vehicle (cells in media+0.1% DMSO), or treated wells and were measured on the indicated days by addition of 20 μL/well of MTS reagent (Cell Titer 96 Aqueous One, Promega, Madison, WI), followed by incubation at 37° C. for 2 h and absorbance measurements at 490 nm via plate reader (Molecular Devices, San Jose CA).
(§6) All conditions were conducted in quadruplicate and each experiment was carried out at least 3 separate times. All comparisons were made between treatment and vehicle control at concordant time points. Statistical analyses and non-linear regressions were derived using GraphPad Prism statistical software.

[2] = tested on: MG63.3 OS cell line; assay: 2D growth / cytotoxicity by MTT, MG63.3; settings: for doses exhibiting cytotoxicity on 2D growth: 72 h
Protocol: The number of viable cells present in 2D culture was determined by MTT as previously reported. Briefly, cells were plated in 96-well plates at 2,000 cells/well and incubated at 37° C. for 24 h. After 24 h, the media was replaced with fresh media containing drugs at the desired concentrations (10 pM-10 μM) and incubated at 37° C. for 72 h. After 72 h, MTT reagent (20 L/well of a 5 mg/mL stock solution in sterile water; Sigma, St. Louis, MO) was added to each well and the plate was incubated at 37° C. for 2 h. DMSO ([…]) was then added to each well to solubilize the formazan crystals.
(§7) The resulting absorbance was measured at 490 nm via plate reader (Molecular Devices, San Jose, CA). DMSO (0.1%) was used as vehicle control, while 20 μM rapamycin was used as a positive cell-kill control. The experimental conditions were conducted in triplicate and each experiment was repeated three times. Regression lines and IC50's were calculated using a four-parameter variable slope nonlinear fit in GraphPad Prism.

[3] = tested on: K7M2 OS cell line; assay: in vitro 3D BME assay with K7M2 OS cell line; type: cell-based, mouse
From the text: as §1, §2, §3, §4, §5, §6

[4] = tested on: K7M2 OS cell line; assay: 2D growth / cytotoxicity by MTT, K7M2; type: cell-based, mouse; settings: for non-cytotoxic drug exposures in 2D: K7M2, MTT 72 h, 10 pM-100 μM
Protocol: The number of viable cells present in 2D culture was determined by MTT as previously reported. Briefly, cells were plated in 96-well plates at 2,000 cells/well and incubated at 37° C. for 24 h. […] After 72 h, MTT reagent (20 L/well of a 5 mg/mL stock solution in sterile water; Sigma, St. Louis, MO) was added to each well and the plate was incubated at 37° C. for 2 h. DMSO ([…]) was then added to each well to solubilize the formazan crystals.
as §7

[5] = tested on: MG63.3 human OS cells; assay: PuMA (ex vivo Pulmonary Metastasis Assay) with MG63.3; type: cell-based; settings: single agents, two doses: 100 nM and 1 μM (rapamycin 100 nM and 1 pM [sic]; AZD8055 10 and 100 nM), replicates=3-5
Protocol: FIG. 23A is a schematic illustrating the metastatic progression of GFP-expressing OS cells conducted by injecting single cells via tail vein injection, followed by lung excision and insufflation 15 mins post-injection. The formation of multicellular colonies in the mouse lung microenvironment can be assessed 14-21 days post-injection.
Dissected lungs are then sectioned and grown on sponges.

[6] = tested on: MG63.3 OS cells; assay: in vitro SISGel assay with highly metastatic MG63.3 OS cells; type: cell-based, human; settings: MG63.3 on SISGel, vs vehicle control, replicates=4
From the text: SISGel is comprised of porcine small intestine submucosa gel that was originally developed at Oklahoma State U., by R. Hurst (CSO) and M. Ihnat (Consultant) (Bailey-Downs et al. 2014; Hurst et al. 2013, 2015, 2016). Unlike BME which is derived from a tumor-based matrix, SISGel is derived from healthy stroma and provides a suppressive “normal” ECM. […] Conditions have been identified that promoted suppressed ME-type profile (FIG. 2A). […] In addition to SISGel's complementarity to the BME assay, it can also be conducted in a 96-well format, enabling a high-throughput system to model suppressed/dormant cancer cells to further validate the screening results in BME.

[7] = given alone at 2 mg/day, cited from earlier work
[8] = Homo sapiens, MG-63.3, MG63.3 on 3D BME, vs vehicle control, replicates=4, read-out: lowest dose leading to appreciable inhibition of 3D growth
[9] = MG63.3 on 3D BME, vs vehicle control, replicates=4, read-out: lowest dose leading to appreciable inhibition of 3D growth

In the case of `CNC(=O)c1cc(Oc2ccc(NC(=O)Nc3ccc(Cl)c(C(F)(F)F)c3)c(F)c2)ccn1` [regorafenib], the inhibition at 1 µM ([1]; Homo sapiens, MG-63.3, 144 h, MG63.3, Day 6 growth by MTS, P<0.005) is reported as ~20%, the “effect on metastatic phenotype / 3D growth in 3D BME (words)” value ([1]; MG63.3, Day 6 MTS, at or below 1 μM) is reported as “consistently inhibit 3D growth across both cell lines” and the “inhibition in 3D BME at 100 nM” value ([1]; MG63.3, Day 6 growth by MTS) is reported as “Significant inhibition was not seen”. The “effect on cell number in 2D monolayer” value ([2]; MG63.3, MTT, exposures up to 1 μM / assessed exposures) was “no effect on remaining cell number”, the “effect on metastatic phenotype / 3D growth in 3D BME (words)” value ([3]; K7M2, Day 6 MTS, at or below 1 μM) was “consistently inhibit 3D growth across both cell lines” and the “inhibition in 3D BME at 100 nM” value ([3]; K7M2, Day 6 growth by MTS) was “Significant inhibition was not seen”. For the same compound, the inhibition at 1 µM ([3]; Mus musculus, 144 h, K7M2, Day 6 growth by MTS, P<0.005) was ~20% and the “non-cytotoxic drug exposures in 2D” value [4] was “below 1 μM”.
With `COc1ccc(-c2ccc3c(N4CCOC[C@@H]4C)nc(N4CCOC[C@@H]4C)nc3n2)cc1CO` [AZD8055] the minimal effective concentration [1, 8] was 0.1 µM, the “activity on 3D BME compared with 2D” value [1] was “much stronger activity on 3D BME at slightly lower doses” and the “doses exhibiting cytotoxicity on 2D growth” value (“doses exhibiting cytotoxicity” for short) ([2]; human) was > 100 nM. The “inhibition of ME (loss of GFP signal in the lung tissue)” value [5] was “strong inhibition of ME”.
With `Cn1ncnc1[C@H]1c2n[nH]c(=O)c3cc(F)cc(c23)N[C@@H]1c1ccc(F)cc1` [talazoparib] the minimal effective concentration [1, 8] was 0.0125 µM, the “activity on 3D BME compared with 2D” value [1] was “much stronger activity on 3D BME at significantly lower doses” and the “doses exhibiting cytotoxicity” value ([2]; human) was > 100 nM.
In the case of `CO[C@@H](C(=O)N1Cc2n[nH]c(NC(=O)c3ccc(N4CCN(C)CC4)cc3)c2C1)c1ccccc1` [danusertib], the minimal effective concentration [1, 8] is reported as 0.1 µM, the “activity on 3D BME compared with 2D” value [1] is reported as “much stronger activity on 3D BME at significantly lower doses” and the “doses exhibiting cytotoxicity” value ([2]; human) is reported as > 100 nM.
With `CNC(=O)c1cccc(-c2ccc3c(N4CCOC[C@@H]4C)nc(N4CCOC[C@@H]4C)nc3n2)c1` [vistusertib] the minimal effective concentration [1, 8] was 0.1 µM, the “activity on 3D BME compared with 2D” value [1] was “slightly stronger activity on 3D BME at 100 nM” and the “doses exhibiting cytotoxicity” value ([2]; human) was > 0.64 nM.
With `CN1CCN(CCOc2cc(OC3CCOCC3)c3c(Nc4c(Cl)ccc5c4OCO5)ncnc3c2)CC1` [saracatinib] the “non-cytotoxic drug exposures in 2D” value [4] was “below 1 μM”.
For `NS(=O)(=O)OC[C@@H]1C[C@@H](n2ccc3c(N[C@H]4CCc5ccccc54)ncnc32)C[C@@H]1O` [pevonedistat], the inhibition at 0.025 µM ([1]; Homo sapiens, MG-63.3, pevonedistat 25 nM, MG63.3) was 47%, the “activity on 3D BME compared with 2D” value [1] was “much stronger activity on 3D BME at significantly lower doses; also recorded: more active in 3D than in 2D” and the inhibition at 0.025 µM ([2]; Homo sapiens, MG-63.3, read-out: inhibition in 2D) was 20%. For the same compound, the “doses exhibiting cytotoxicity” value ([2]; human) was > 10 nM.
In the case of `O=C(NC[C@H](O)CO)c1ccncc1Nc1ccc(I)cc1F` [pimasertib], the “lowest dose leading to complete inhibition of 3D growth” value ([1]; MG63.3 on 3D BME, vs vehicle control, replicates=4) is reported as 100 nM and the “doses exhibiting cytotoxicity” value ([2]; human) is reported as “above 1 nM”.
In the case of `O=C(Cc1cccc(OC(F)(F)F)c1)Nc1ccc(CCCCc2nnc(NC(=O)Cc3ccccn3)s2)nn1` [telaglenastat], the minimal effective concentration [1, 8] is reported as 0.001 µM, the “activity on 3D BME compared with 2D” value [1] is reported as “much stronger activity on 3D BME at significantly lower doses; also recorded: more active in 3D than in 2D” and the minimal effective concentration [1, 9] is reported as 0.001 µM. For the same compound, the “growth in cell number in 3D BME at highest 2D inactive dose” value ([1]; telaglenastat 100 nM, MG63.3) was 10%, the “doses exhibiting cytotoxicity” value ([2]; human) was > 100 nM and the “effect in 2D at the same dose” value ([2]; telaglenastat 100 nM, MG63.3) was “no statistically significant inhibition; also recorded: inactive”.
In the case of `CO[C@H]1C[C@@H]2CC[C@@H](C)[C@@](O)(O2)C(=O)C(=O)N2CCCC[C@H]2C(=O)O[C@H]([C@H](C)C[C@@H]2CC[C@@H](O)[C@H](OC)C2)CC(=O)[C@H](C)/C=C(\C)[C@@H](O)[C@@H](OC)C(=O)[C@H](C)C[C@H](C)/C=C/C=C/C=C/1C` [rapamycin], the minimal effective concentration [1, 9] is listed as 0.0005 µM, the “lowest dose leading to appreciable inhibition of 3D growth” value [6] is listed as 1 nM and the “whole blood trough concentration mean” value ([7]; months 4 through 12) is listed as 19 ng/mL. The “whole blood trough concentration range” value ([7]; months 4 through 12) was 14 to 22 ng/mL, the “whole blood trough concentration mean” value ([7]; year 3) was 16 ng/mL and the “whole blood trough concentration range” value ([7]; year 3) was 11 to 22 ng/mL. The “doses leading to significant cytotoxicity on 2D growth” value ([4]; K7M2, MTT, 72 h, tested 15 nM-100 μM) was ≥ 10 PM.
With `C=CCNC1=C2C[C@@H](C)C[C@H](OC)[C@H](O)[C@@H](C)/C=C(\C)[C@H](OC(N)=O)[C@@H](OC)/C=C\C=C(/C)C(=O)NC(=CC1=O)C2=O` [tanespimycin] the minimal effective concentration ([1]; Homo sapiens, MG-63.3, read-out: lowest dose leading to appreciable inhibition of 3D growth) was 0.025 µM and the “doses exhibiting cytotoxicity” value ([2]; MG63.3, MTT, replicates=3) was > 25 nM.
For `CC1(C)CCC(c2ccc(Cl)cc2)=C(CN2CCN(c3ccc(C(=O)NS(=O)(=O)c4ccc(N[C@H](CCN5CCOCC5)CSc5ccccc5)c(S(=O)(=O)C(F)(F)F)c4)cc3)CC2)C1` [navitoclax], the minimal effective concentration [1, 8] was 0.5 µM, the “activity on 3D BME compared with 2D” value [1] was “much stronger activity on 3D BME at similar doses; also recorded: more active in 3D than in 2D” and the “growth inhibition in the 3D BME assay” value ([1]; navitoclax 500-2000 nM, MG63.3) was 50-60%. The “doses exhibiting cytotoxicity” value ([2]; human) was ≥ 1000 nM and the “inhibition in 2D” value ([2]; navitoclax 500-2000 nM, MG63.3) was 0-25%.
